Reference: article PMC4850106 (Journal of medicinal chemistry, 2016)

Tests used:
human NOP = human NOP (Homo sapiens, UniProt P41146); settings: read-out: Ki for the human NOP; cited from earlier work
neuropathic mice = settings: neuropathic conditions ref 73; cited from earlier work
Sprague–Dawley rats = assay: Respiratory effects by whole body plethysmography in rats; assay type: in vivo; settings: iv, 13a 0.5 mg/kg, morphine 5 mg/kg
mice (C57BL6) = settings: acute pain, increased dosing ref 73; cited from earlier work
[1] = tested on: brain-like endothelial cells cocultured with pericytes; assay: In vitro human BBB cell-based model; assay type: in vitro ADME; settings: cell-based BBB model, 200 µM, 2 h
[2] = In vitro human BBB cell-based model; assay type: in vitro ADME; settings: human
BBB-PAMPA assay = assay type: in vitro ADME, porcine; settings: 500 µM in donor, 4 h

Sequence of human NOP (P41146 whole entry): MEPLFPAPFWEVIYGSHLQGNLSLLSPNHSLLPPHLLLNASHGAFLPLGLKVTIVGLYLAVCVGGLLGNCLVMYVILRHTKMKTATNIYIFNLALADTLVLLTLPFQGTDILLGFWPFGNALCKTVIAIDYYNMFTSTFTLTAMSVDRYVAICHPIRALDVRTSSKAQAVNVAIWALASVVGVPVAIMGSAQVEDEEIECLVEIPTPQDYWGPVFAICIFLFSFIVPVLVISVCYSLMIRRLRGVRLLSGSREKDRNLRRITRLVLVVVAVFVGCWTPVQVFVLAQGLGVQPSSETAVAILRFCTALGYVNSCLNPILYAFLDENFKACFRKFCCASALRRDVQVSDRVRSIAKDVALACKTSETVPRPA

Compound: Ac-Arg-Tyr-Tyr-Arg-Trp-Arg-NH2 (Ac-RYYRWR-NH2)
- Ki (human NOP): 0.1 nM

Compound: CN1CC[C@]23c4c5ccc(O)c4O[C@H]2[C@@H](O)C=C[C@H]3[C@H]1C5 [morphine]
- sustained %MPE no matter how high the dose (neuropathic mice): about 50 %MPE
- inspiratory time (Sprague–Dawley rats): significant increase in inspiratory time
- respiratory frequency (Sprague–Dawley rats): decrease in respiratory frequency
- respiratory depression (ventilation minute) (Sprague–Dawley rats; vs saline, AUC): deleterious effect
- %MPE in tail-flick test upon increased dosing (mice (C57BL6)): 100 %MPE

Compound: CC[C@H](C)[C@H](NC(=O)[C@H](CCCN=C(N)N)NC(=O)[C@H](Cc1ccc(O)cc1)NC(=O)[C@H](Cc1ccc(O)cc1)NC(=O)[C@H](CCCN=C(N)N)NC(C)=O)C(=O)N[C@@H](CCCCN)C(N)=O [compound 8, Ac-Arg-Tyr-Tyr-Arg-Ile-Lys-NH2]
- mass balance (%) [1]: 95%
- transport (%) [1]: 14%
- Papp A→B at 2 h, 200 µM [2]: 8.4 ×10⁻⁶ cm/s
- transport (%) (BBB-PAMPA assay): 0.15%
